# Active and inactive are the calls of the source. Unless noted, no cut-off for these calls is given here.
# Legend:
# [1] = Luminescence Cell-Based Dose Response to Identify Activators of 5'UTR Stem-Loop Driven Prion Protein mRNA Translation in H4-C Neuroglioblastoma Cells. [Related pubchem assays: 1829 (Project Summary), 1814 (Primary HTS)]; type: functional
# [2] = Luminescence Cell-Based Dose Response HTS to Identify Activators of Luciferase Translation or Activity in H4 […] Cells. [Related pubchem assays: 1829 (Project Summary), 1814 (Primary HTS)]; type: functional
# [3] = tested on: H4; test: Luminescence Cell-Based Dose Response HTS to Identify Activators of 5'UTR Stem-Loop Driven Prion Protein mRNA Translation in H4 Neuroglioblastoma Cells. [Related pubchem assays: 1829 (Project Summary), 1814 (Primary HTS)]; type: functional; conditions: Homo sapiens
# [4] = Luminescence Cell-Based Dose Response to Identify Activators of Luciferase Translation or Activity in H4-C Neuroglioblastoma Cells. [Related pubchem assays: 1829 (Project Summary), 1814 (Primary HTS)]; type: functional
# [5] = Luminescence Cell-Based Dose Confirmation to Identify Activators of 5'UTR Stem-Loop Driven Alpha-Synuclein mRNA Translation in H4 Neuroglioblastoma Cells. [Related pubchem assays: 1829 (Project Summary), 1814 (Primary HTS)]; type: functional
# [6] = Inhibition of T. cruzi Tulahuen strain amastigotes in L-6 muscle cells Measured in Cell-Based and Microorganism Combination System Using Plate Reader - 2138-03_Inhibitor_Dose_CherryPick_Activity.; type: functional; conditions: Rattus norvegicus, L6
# [7] = L6 myocyte viability loss – cell-based, plate reader, cherry-pick, cytotoxicity control, dose response (AID 651896); type: functional
# [8] = Inhibition of Plasmodium falciparum NF54 Measured in Cell-Based System Using Plate Reader - 2138-11_Inhibitor_Dose_CherryPick_Activity.; type: functional
# [9] = antileishmanial activity on axenic amastigotes – plate reader, cherry pick, dose response (AID 651891); type: functional, cell-based; conditions: Leishmania donovani
# [10] = intracellular Trypanosoma cruzi inhibitors in host cells – cell-based, plate reader, cherry-pick samples, set 3, dose response (AID 651818); type: functional;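 note: compounds incubated with infected cells for about four days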
# [11] = African trypanosome bloodstream form growth inhibition – STIB900 strain, plate reader, cherry pick, dose response (AID 651893); type: functional, cell-based, Trypanosoma brucei rhodesiense; conditions: Trypanosoma brucei
# [12] = T. cruzi growth inhibition in host cells, dose response, cell-based, plate reader, dry powder, set 2 (AID 652275); type: functional
# [13] = Trypanosoma cruzi replication inhibitors in host cells – cell-based, plate reader, dry powder samples, dose response (AID 651845); type: functional
# [14] = anti-trypanosomal activity in BESM host cells – imaging, CA-I/72 strain, bovine embryo skeletal muscle, dry powder, dose response (AID 651885); type: functional, cell-based
# [15] = blockers of HIV-1 envelope-mediated cell-cell fusion – cherry-pick, dose response (AID 652057); type: functional, cell-based
# [16] = blockers of HIV-1 ZM109 envelope-driven cell-cell fusion – HeLa effector, CEM target cells, luciferase, cherry-pick, dose response (AID 652058); type: functional, cell-based;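 note: luciferase signal from HIV-1 Env mediated cell-cell fusion of effector and target cells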
# [17] = inhibition of Env-driven cell fusion – HIV entry, plate reader, dry powder, dose response (AID 687023); type: functional, cell-based
# [18] = viability loss in CEM21 cells – cell-based, plate reader, dry powder, cytotoxicity control, dose response (AID 687026); type: functional
# [19] = biological target: T1, Potassium channel subfamily K member 9 (Homo sapiens, UniProt Q9NPC2); test: TASK3 channel blockers, electrophysiology – cell-based, automated electrophysiology, selectivity assay for TASK1 (KCNK3) inhibitor project, SAR follow-up (AID 652210); type: functional
# T1 sequence (Q9NPC2 whole entry): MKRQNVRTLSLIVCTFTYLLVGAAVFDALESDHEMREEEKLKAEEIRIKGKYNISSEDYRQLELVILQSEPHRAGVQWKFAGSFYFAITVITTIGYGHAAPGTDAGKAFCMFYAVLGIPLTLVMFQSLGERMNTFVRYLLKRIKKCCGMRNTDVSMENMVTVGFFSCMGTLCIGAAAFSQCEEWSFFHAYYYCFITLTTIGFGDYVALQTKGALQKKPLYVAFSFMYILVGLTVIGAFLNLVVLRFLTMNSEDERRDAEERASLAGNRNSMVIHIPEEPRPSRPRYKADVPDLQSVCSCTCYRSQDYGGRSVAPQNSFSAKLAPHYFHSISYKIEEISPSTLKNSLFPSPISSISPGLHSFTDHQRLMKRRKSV
# [20] = biological target: T1, Potassium channel subfamily K member 9; test: KCNK9 flux blockade, concentration-response – cell-based, FluxOR thallium flux, selectivity assay for TASK1 inhibitor project, SAR follow-up (AID 652211); type: functional;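 note: potency is for inhibitors of the channel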
# [21] = biological target: Potassium channel subfamily K member 3 (Rattus norvegicus, UniProt O54912); test: SAR analysis for the identification of selective inhibitors of the two-pore domain potassium channel TASK1(KCNK3):Automated Electrophysiology.; type: functional
# Potassium channel subfamily K member 3 (Rattus norvegicus, UniProt O54912), sequence (O54912 whole entry, the tested form may be a part): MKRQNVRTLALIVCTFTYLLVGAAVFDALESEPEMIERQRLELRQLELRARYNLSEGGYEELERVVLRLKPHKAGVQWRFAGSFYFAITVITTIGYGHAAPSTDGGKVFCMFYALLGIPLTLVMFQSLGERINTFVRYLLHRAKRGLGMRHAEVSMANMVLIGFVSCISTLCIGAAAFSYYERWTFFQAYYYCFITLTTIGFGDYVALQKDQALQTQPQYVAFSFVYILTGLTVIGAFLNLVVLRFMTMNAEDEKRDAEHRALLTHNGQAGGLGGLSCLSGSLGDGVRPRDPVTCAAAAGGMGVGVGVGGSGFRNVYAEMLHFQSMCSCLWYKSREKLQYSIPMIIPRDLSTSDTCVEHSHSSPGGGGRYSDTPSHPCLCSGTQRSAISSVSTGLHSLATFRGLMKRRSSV
# [22] = biological target: Potassium channel subfamily K member 3 (Homo sapiens, UniProt O14649); test: inhibition of human KCNK3 channel flux – CHO cells, FluxOR thallium flux, SAR follow-up (AID 652212); type: functional
# Potassium channel subfamily K member 3 (Homo sapiens, UniProt O14649), sequence (O14649 whole entry): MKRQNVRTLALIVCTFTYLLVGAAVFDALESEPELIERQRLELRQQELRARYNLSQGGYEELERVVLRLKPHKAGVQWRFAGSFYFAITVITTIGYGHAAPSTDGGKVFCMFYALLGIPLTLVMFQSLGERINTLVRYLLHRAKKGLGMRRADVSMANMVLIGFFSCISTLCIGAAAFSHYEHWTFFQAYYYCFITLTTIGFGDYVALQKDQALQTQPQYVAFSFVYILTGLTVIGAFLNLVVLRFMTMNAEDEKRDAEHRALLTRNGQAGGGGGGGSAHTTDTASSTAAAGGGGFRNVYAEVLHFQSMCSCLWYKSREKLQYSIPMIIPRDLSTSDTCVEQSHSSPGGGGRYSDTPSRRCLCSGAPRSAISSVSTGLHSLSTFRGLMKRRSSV
# [23] = biological target: NAD-dependent protein deacylase sirtuin-5, mitochondrial (Homo sapiens, UniProt Q9NXA8); test: blockers of sirtuin-5 peptide desuccinylation – biochemical, fluorescence imaging, cherry-pick, set 6, dose response (AID 720597)
# NAD-dependent protein deacylase sirtuin-5, mitochondrial, sequence (Q9NXA8 whole entry): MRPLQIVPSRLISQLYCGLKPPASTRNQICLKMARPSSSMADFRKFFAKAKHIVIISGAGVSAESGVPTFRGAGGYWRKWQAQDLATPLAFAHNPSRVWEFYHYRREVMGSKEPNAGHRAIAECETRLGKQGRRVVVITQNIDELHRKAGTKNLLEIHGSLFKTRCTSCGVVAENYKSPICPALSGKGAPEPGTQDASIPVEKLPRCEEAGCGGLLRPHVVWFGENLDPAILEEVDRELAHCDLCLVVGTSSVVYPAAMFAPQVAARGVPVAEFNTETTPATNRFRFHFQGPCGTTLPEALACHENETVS
# [24] = biological target: RNA-editing ligase 1, mitochondrial (Trypanosoma brucei brucei, UniProt P86926); test: inhibition of trypanosome RNA editing ligase – biochemical, fluorescence, Trypanosoma brucei, dose response (AID 1117295); type: functional
# RNA-editing ligase 1, mitochondrial, sequence (P86926 whole entry): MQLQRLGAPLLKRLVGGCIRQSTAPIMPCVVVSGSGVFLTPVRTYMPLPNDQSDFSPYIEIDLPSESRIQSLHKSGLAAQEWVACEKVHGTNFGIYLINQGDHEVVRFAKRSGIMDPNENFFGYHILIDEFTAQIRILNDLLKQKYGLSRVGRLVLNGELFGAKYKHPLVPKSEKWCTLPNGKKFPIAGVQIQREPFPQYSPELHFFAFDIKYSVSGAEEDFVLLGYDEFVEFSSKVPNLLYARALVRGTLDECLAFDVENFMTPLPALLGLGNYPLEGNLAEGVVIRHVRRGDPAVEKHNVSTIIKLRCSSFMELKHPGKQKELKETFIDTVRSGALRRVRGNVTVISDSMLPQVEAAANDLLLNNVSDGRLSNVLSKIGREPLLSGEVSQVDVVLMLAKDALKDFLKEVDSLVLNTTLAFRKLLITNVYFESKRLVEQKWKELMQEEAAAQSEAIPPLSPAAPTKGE
# [25] = biological target: T2, Low molecular weight phosphotyrosine protein phosphatase (Homo sapiens, UniProt P24666); test: inhibition of LMPTP-A enzymatic activity – biochemical, OMFP substrate, fluorescence intensity, set 2, dose response (AID 743307); type: functional
# T2 sequence (P24666 whole entry, canonical isoform): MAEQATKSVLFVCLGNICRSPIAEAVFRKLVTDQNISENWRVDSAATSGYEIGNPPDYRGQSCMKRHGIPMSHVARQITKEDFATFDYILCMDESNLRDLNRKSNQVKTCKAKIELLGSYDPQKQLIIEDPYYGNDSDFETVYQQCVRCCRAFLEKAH
# [26] = biological target: T2, Low molecular weight phosphotyrosine protein phosphatase; test: inhibition of human LMPTP enzyme activity – biochemical, absorbance, pNPP substrate, LMPTP-A isoform, set 2, orthogonal assay, dose response (AID 743308); type: functional
structure (smiles),measurement,setting,value
Cc1nc2c(-c3ccccc3)cnn2c(N2CCOCC2)c1C,EC50,[1],0.246 µM (active)
same,EC50,[2],< 0.1 µM (active)
same,EC50,[3],0.108 µM (active)
same,EC50,[4],0.246 µM (active)
same,EC50,[5],2.38 µM (active)
C[C@@H]1CN([C@H](C)CO)C(=O)c2cccc(NC(=O)c3ccncc3)c2O[C@H]1CN(C)Cc1ccccc1,IC50,[6],5.64 µM (inactive)
same,IC50,[7],> 100 µM (inactive)
same,IC50,[8],5.64 µM (inactive)
same,IC50,[9],> 100 µM (inactive)
same,AC50,[10],0.08 µM (active)
same,IC50,[11],6.14 µM (inactive)
same,AC50,[12],0.00561 µM (active)
same,AC50,[13],0.064 µM (active)
same,IC50,[14],0.0144 µM (active)
C[C@@H]1CN([C@@H](C)CO)C(=O)c2cccc(NS(=O)(=O)c3ccc(F)cc3)c2O[C@@H]1CN(C)Cc1ccc(C(F)(F)F)cc1,AC50,[15],0.295 µM (active)
same,AC50,[16],0.451 µM (active)
same,AC50,[17],4.05 µM (active)
same,AC50,[18],43.9 µM (active)
CCOc1ccccc1NC(=O)c1cccc(NC(=O)CC2CCCC2)c1,IC50,[19],3.9 µM (active)
same,IC50,[20],4.17 µM (active)
same,IC50,[21],0.32 µM (active)
same,IC50,[22],0.161 µM (active)
CCCNC(=O)Nc1ccc2c(c1)C(=O)N(C)[C@H]1CC[C@H](CC(=O)NCC3CCCCC3)O[C@@H]1CO2,AC50,[23],> 30 µM (inactive)
COC(=O)C1=C(C)N(Cc2ccc(C(F)(F)F)cc2)C(NCc2ccc(C(F)(F)F)cc2)=NC1c1ccccc1C(F)(F)F (stereo unspecified),IC50,[24],> 96.6 µM (inactive)
c1ccc(-c2cc(NCCCN3CCCCC3)c3ccccc3n2)cc1,IC50,[25],1.56 µM (active)
same,IC50,[26],2.98 µM (active)
